The values that follow come from patent US7772180B2, “Hepatitis C virus inhibitors” (Bristol-Myers Squibb Company, priority 2006, dated 2010).

Like-named read-outs stand apart in the source and are kept apart here.

For assay [1], the system named is HCV replicon (strain 1b) in HUH-7 cells. In words: HCV replicon FRET assay. It counts as cell-based, Hepatitis C virus. The text has this: An HCV replicon whole cell system was established as described by Lohmann V, Korner F, Koch J, Herian U, Theilmann L, Bartenschlager R., Science 285(5424): 110-3 (1999). This system enabled us to evaluate the effects of our HCV Protease compounds on HCV RNA replication. Briefly, using the HCV strain 1b sequence described in the Lohmann paper (Assession number: AJ238799), an HCV cDNA was synthesized by Operon Technologies, Inc. (Alameda, Calif.), and the full-length replicon was then assembled in plasmid pGem9zf(+) (Promega, Madison, Wis.) using standard molecular biology techniques. The replicon consists of (i) the HCV 5′ UTR fused to the first 12 amino acids of the capsid protein, (ii) the neomycin phosphotransferase gene (neo), (iii) the IRES from encephalomyocarditis virus (EMCV), and (iv) HCV NS3 to NS5B genes and the HCV 3′ UTR. Plasmid DNAs were linearized with ScaI and RNA transcripts were synthesized in vitro using the T7 MegaScript transcription kit (Ambion, Austin, Tex.) according to manufacturer's directions. In vitro transcripts of the cDNA were transfected into the human hepatoma cell line, HUH-7. […] Resulting cell lines were characterized for positive and negative strand RNA production and protein production over time.
The HCV replicon FRET assay was developed to monitor the inhibitory effects of compounds described in the disclosure on HCV viral replication. HUH-7 cells, constitutively expressing the HCV replicon, were grown in Dulbecco's Modified Eagle Media (DMEM) (Gibco-BRL) containing 10% Fetal calf serum (FCS) (Sigma) and 1 mg/ml G418 (Gibco-BRL). Cells were seeded the night before (1.5×10^4 cells/well) in 96-well tissue-culture sterile plates. Compound and no compound controls were prepared in DMEM containing 4% FCS, 1:100 Penicillin/Streptomysin (Gibco-BRL), 1:100 L-glutamine and 5% DMSO in the dilution plate (0.5% DMSO final concentration in the assay). Compound/DMSO mixes were added to the cells and incubated for 4 days at 37° C. After 4 days, cells were first assessed for cytotoxicity using alamar Blue (Trek Diagnotstic Systems) for a CC50 reading. The toxicity of compound (CC50) was determined by adding 1/10th volume of alamarBlue to the media incubating the cells. After 4 hours, the fluorescence signal from each well was read, with an excitation wavelength at 530 nm and an emission wavelength of 580 nm, using the Cytofluor Series 4000 (Perspective Biosystems). Plates were then rinsed thoroughly with Phosphate-Buffered Saline (PBS) (3 times 150 μl).

Assay [2] addresses T1, HCV NS3/4A protease complex, BMS strain (UniProt P27958, species not given/STRAIN_BMS).
T1 construct: other: NS3/4A BMS strain; activity range class; numeric values, unit not given; said of H77 and J4L6S; fused on or other part: A three-lysine solubilising tail at the C-terminus of NS4A; A His tag is implied by the pET21b vector and Ni-NTA purification; Both are printed for the H77 and J4L6S constructs and apply to BMS by inference
The assay can be described thus: FRET peptide assay to monitor HCV NS3/4A proteolytic activity (BMS strain). Format: biochemical, Hepatitis C virus (genotype 1a). The note with it: read-out: HCV Protease (IC50), NS3/4A BMS strain. The text has this:
HCV NS3 protease complexes, derived from the BMS strain, H77 strain or J4L6S strain, were generated, as described below. These purified recombinant proteins were generated for use in a homogeneous assay (see below) to provide an indication of how effective compounds of the present disclosure would be in inhibiting HCV NS3 proteolytic activity.
Serum from an HCV-infected patient was obtained from Dr. T. Wright, San Francisco Hospital. An engineered full-length cDNA (compliment deoxyribonucleic acid) template of the HCV genome (BMS strain) was constructed from DNA fragments obtained by reverse transcription-PCR (RT-PCR) of serum RNA (ribonucleic acid) and using primers selected on the basis of homology between other genotype 1a strains. From the determination of the entire genome sequence, a genotype 1a was assigned to the HCV isolate according to the classification of Simmonds et al. (See P Simmonds, K A Rose, S Graham, S W Chan, F McOmish, B C Dow, E A Follett, P L Yap and H Marsden, J. Clin. Microbiol., 31(6), 1493-1503 (1993)). […] The infectious clones, H77 (1a genotype) and J4L6S (1b genotype) were obtained from R. Purcell (NIH) and the sequences are published in Genbank (AAB67036, see Yanagi, M., Purcell, R. H., Emerson, S. U. and Bukh, J. Proc. Natl. Acad. Sci. U.S.A. 94(16), 8738-8743 (1997); AF054247, see Yanagi, M., St Claire, M., Shapiro, M., Emerson, S. U., Purcell, R. H. and Bukh, J. Virology 244 (1), 161-172. (1998)).
NS3/4A protease complex-containing fractions were pooled and loaded on a desalting column Superdex-S200 pre-equilibrated with buffer D (25 mM HEPES, pH 7.5, 20% glycerol, 300 mM NaCl, 0.2% Triton X-100, 10 mM βME). Sample was loaded at a flow rate of 1 mL/min. NS3/4A protease complex-containing fractions were pooled and concentrated to approximately 0.5 mg/ml. The purity of the NS3/4A protease complexes, derived from the BMS, H77 and J4L6S strains, were judged to be greater than 90% by SDS-PAGE and mass spectrometry analyses. The enzyme was stored at −80° C., thawed on ice and diluted prior to use in assay buffer.
The purpose of this in vitro assay was to measure the inhibition of HCV NS3 protease complexes, derived from the BMS strain, H77 strain or J4L6S strain, as described above, by compounds of the present disclosure. This assay provides an indication of how effective compounds of the present disclosure would be in inhibiting HCV NS3 proteolytic activity.
In order to monitor HCV NS3/4A protease activity, an NS3/4A peptide substrate was used. The substrate was RET S1 (Resonance Energy Transfer Depsipeptide Substrate; AnaSpec, Inc. cat #22991) (FRET peptide), described by Taliani et al. in Anal. Biochem. 240(2):60-67 (1996). The sequence of this peptide is loosely based on the NS4A/NS4B natural cleavage site for the HCV NS3 protease except there is an ester linkage rather than an amide bond at the cleavage site. The peptide also contains a fluorescence donor, EDANS, near one end of the peptide and an acceptor, DABCYL, near the other end. The fluorescence of the peptide is quenched by […] resonance energy transfer (RET) between the donor and the acceptor, but as the NS3 protease cleaves the peptide the products are released from RET quenching and the fluorescence of the donor becomes apparent.
The peptide substrate was incubated with one of the three recombinant NS3/4A protease complexes, in the absence or presence of a compound of the present disclosure. The inhibitory effects of a compound were determined by monitoring the formation of fluorescent reaction product in real time using a Cytofluor Series 4000.
Assay buffer: 50 mM HEPES, pH 7.5; 0.15 M NaCl; 0.1% Triton; 15% Glycerol; 10 mM βME. Substrate: 2 μM final concentration (from a 2 mM stock solution in DMSO stored at −20° C.). HCV NS3/4A protease type 1a (1b), 2-3 nM final concentration (from a 5 μM stock solution in 25 mM HEPES, pH 7.5, 20% glycerol, 300 mM NaCl, 0.2% Triton-X100, 10 mM βME). […]

Setting [3] is: Hepatitis C virus, Huh-7, read-out: HCV Pro Replicon (EC50), HCV replicon cell assay, activity range class.
[4] abbreviates: Hepatitis C virus, Huh-7, read-out: HCV Pro Replicon (EC50), HCV replicon cell assay, numeric values, unit inferred.

T1 sequence (P27958 1027-1657, change not shown, one chain of several): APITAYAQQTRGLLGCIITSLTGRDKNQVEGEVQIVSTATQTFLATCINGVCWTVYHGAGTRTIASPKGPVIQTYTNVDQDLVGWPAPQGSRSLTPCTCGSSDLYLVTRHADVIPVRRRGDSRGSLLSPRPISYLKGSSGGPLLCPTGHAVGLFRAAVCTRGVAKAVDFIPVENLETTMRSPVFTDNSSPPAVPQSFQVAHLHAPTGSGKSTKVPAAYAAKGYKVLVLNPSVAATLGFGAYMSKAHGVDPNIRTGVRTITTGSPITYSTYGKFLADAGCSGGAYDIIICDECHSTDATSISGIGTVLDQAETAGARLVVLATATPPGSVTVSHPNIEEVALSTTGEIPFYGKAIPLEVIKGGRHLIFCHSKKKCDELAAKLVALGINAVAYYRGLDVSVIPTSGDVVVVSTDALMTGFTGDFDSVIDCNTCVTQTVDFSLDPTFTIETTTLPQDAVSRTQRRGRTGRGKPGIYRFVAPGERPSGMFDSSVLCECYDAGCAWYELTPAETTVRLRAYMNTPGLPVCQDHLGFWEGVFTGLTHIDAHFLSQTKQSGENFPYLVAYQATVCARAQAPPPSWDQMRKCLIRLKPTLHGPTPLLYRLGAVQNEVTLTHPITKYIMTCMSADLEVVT

Consider `C=C[C@@H]1C[C@]1(NC(=O)[C@@H]1C[C@@H](Oc2ncc(OC)c3ccc(Cl)cc23)CN1C(=O)[C@H](Nc1ccc(S(=O)(=O)NCC)cc1)C(C)(C)C)C(=O)NS(=O)(=O)C1CC1` [223 second isomer, N-(4-(ethylsulfamoyl)phenyl)-3-methyl-D-valyl-(4R)-4-((7-chloro-4-methoxy-1-isoquinolinyl)oxy)-N-((1R,2S)-1-((cyclopropylsulfonyl)carbamoyl)-2-vinylcyclopropyl)-L-prolinamide], for which, in assay [1] (setting [3]), the EC50 (in general, the concentration giving half of the maximal effect) is above 1000 nM. The IC50 (commonly the midpoint of a concentration-inhibition curve) in assay [2] (activity range class) is above 200 nM.

As to `C=C[C@@H]1C[C@]1(NC(=O)[C@@H]1C[C@@H](Oc2ncc(OC)c3ccc(Cl)cc23)CN1C(=O)[C@@H](Nc1cccc(C(=O)OC(C)(C)C)c1)C(C)(C)C)C(=O)NS(=O)(=O)C1CC1` [210 first isomer, N-(3-(tert-butoxycarbonyl)phenyl)-3-methyl-L-valyl-(4R)-4-((7-chloro-4-methoxy-1-isoquinolinyl)oxy)-N-((1R,2S)-1-((cyclopropylsulfonyl)carbamoyl)-2-vinylcyclopropyl)-L-prolinamide], the EC50 in assay [1] (setting [3]) lay within 3 to 100 nM. Moreover, the 50% inhibitory concentration (IC50) in assay [2] (activity range class) lay in the range of 0.6 to 20 nM.

For `C=C[C@@H]1C[C@]1(NC(=O)[C@@H]1C[C@@H](Oc2ncc(OC)c3ccc(Cl)cc23)CN1C(=O)C(CC)Nc1nsnc1OC)C(=O)CS(=O)(=O)C1CC1` (stereo partly shown) [Compound 241], in assay [1] (setting [3]), the EC50 was above 1000 nM. Besides, in assay [2] (activity range class), the IC50 was above 200 nM.

Take `C=C[C@@H]1C[C@]1(NC(=O)[C@@H]1C[C@@H](Oc2ncc(OC)c3ccc(Cl)cc23)CN1C(=O)C(Nc1cncnc1)C(C)C)C(=O)NS(=O)(=O)C1CC1` (single isomer, unassigned) [Compound 24A]: in assay [1] (setting [4]), the EC50 stood at 593 nM. Besides, the IC50 in assay [2] (numeric values, unit inferred) worked out at 26 nM.

On to `C=C[C@@H]1C[C@]1(NC(=O)[C@@H]1C[C@@H](Oc2ncc(OC)c3ccc(Cl)cc23)CN1C(=O)C(Nc1cccc(C)n1)C(C)(C)C)C(=O)NS(=O)(=O)C1CC1` (single isomer, unassigned) [28 first isomer], for which, in assay [1] (read-out: HCV Pro Replicon (EC50), HCV replicon cell assay, activity range class), the half-maximal effective concentration (EC50) lay in the range of 3 to 100 nM. In assay [2] (activity range class), the IC50 was 0.6 to 20 nM.

`C=C[C@@H]1C[C@]1(NC(=O)[C@@H]1C[C@@H](Oc2ncc(OC)c3ccc(Cl)cc23)CN1C(=O)C(Nc1cc(C)nc(C)c1)C(C)(C)C)C(=O)NS(=O)(=O)C1CC1` (single isomer, unassigned) [Compound 29B]: the EC50 in assay [1] (setting [4]) came to 14900 nM. For the same compound, in assay [2] (numeric values, unit inferred), the IC50 was 249 nM.

With `C=C[C@@H]1C[C@]1(NC(=O)[C@@H]1C[C@@H](Oc2ncc(OC)c3ccc(Cl)cc23)CN1C(=O)[C@H](Nc1cccc(S(=O)(=O)NC)c1)C(C)(C)C)C(=O)NS(=O)(=O)C1CC1` [227 second isomer, 3-methyl-N-(3-(methylsulfamoyl)phenyl)-D-valyl-(4R)-4-((7-chloro-4-methoxy-1-isoquinolinyl)oxy)-N-((1R,2S)-1-((cyclopropylsulfonyl)carbamoyl)-2-vinylcyclopropyl)-L-prolinamide], the EC50 in assay [1] (setting [3]) is above 1000 nM. Moreover, the IC50 in assay [2] (activity range class) is above 200 nM.

As for `C=C[C@@H]1C[C@]1(NC(=O)[C@@H]1C[C@@H](Oc2ncc(OC)c3ccc(Cl)cc23)CN1C(=O)[C@@H](Nc1ccccc1F)C(C)(C)C)C(=O)NS(=O)(=O)C1CC1` [234 first isomer, N-(2-fluorophenyl)-3-methyl-L-valyl-(4R)-4-[(7-chloro-4-methoxy-1-isoquinolinyl)oxy]-N-((1R,2S)-1-{[(cyclopropylsulfonyl)amino]carbonyl}-2-vinylcyclopropyl)-L-prolinamide], in assay [1] (setting [3]), the EC50 fell in the range of 100 to 1000 nM. The IC50 in assay [2] (activity range class) lay in the range of 20 to 200 nM.

As to `C=C[C@@H]1C[C@]1(NC(=O)[C@@H]1C[C@@H](Oc2ncc(OC)c3ccc(Cl)cc23)CN1C(=O)[C@H](Nc1cccc(S(=O)(=O)N(C)C)c1)C(C)(C)C)C(=O)NS(=O)(=O)C1CC1` [219 second isomer, N-(3-(dimethylsulfamoyl)phenyl)-3-methyl-D-valyl-(4R)-4-((7-chloro-4-methoxy-1-isoquinolinyl)oxy)-N-((1R,2S)-1-((cyclopropylsulfonyl)carbamoyl)-2-vinylcyclopropyl)-L-prolinamide], in assay [1] (setting [3]), the EC50 fell in the range of 3 to 100 nM. Also, the IC50 in assay [2] (activity range class) was in the range of 0.6 to 20 nM.

Turning to `C=C[C@@H]1C[C@]1(NC(=O)[C@@H]1C[C@@H](Oc2ncc(OC)c3ccc(Cl)cc23)CN1C(=O)[C@@H](Nc1ccc(C#N)cc1)C(C)(C)C)C(=O)NS(=O)(=O)C1CC1` [205 first isomer, N-(4-cyanophenyl)-3-methyl-L-valyl-(4R)-4-((7-chloro-4-methoxy-1-isoquinolinyl)oxy)-N-((1R,2S)-1-((cyclopropylsulfonyl)carbamoyl)-2-vinylcyclopropyl)-L-prolinamide], the EC50 in assay [1] (setting [3]) was in the range of 3 to 100 nM. In addition, in assay [2] (activity range class), the IC50 is 0.6 to 20 nM.

Regarding `C=C[C@@H]1C[C@]1(NC(=O)[C@@H]1C[C@@H](Oc2ncc(OC)c3ccc(Cl)cc23)CN1C(=O)C(Nc1cncnc1)C(C)C)C(=O)NS(=O)(=O)C1CC1` (single isomer, unassigned) [24 second isomer], in assay [1] (setting [3]), the EC50 is above 1000 nM. For the same compound, the IC50 in assay [2] (activity range class) is above 200 nM.
